Tests used:
[1] = test system: Plasmodium falciparum K1 strain; experiment: Anti-Plasmodium activity assay (Malstat); format: cell-based; details: P. falciparum K1, 72 h
Procedure: (§1) The compound set was tested against the following parasites: intra-erythrocytic forms in human red blood cells of P. falciparum K1 strain (malaria), [16], [32], [33], [35], bloodstream forms of T. brucei Squib 427 strain (human African trypanosomiasis, HAT), [31], [32], [34], intracellular amastigotes of T. cruzi Tulahuen CL2, beta- galactosidase strain (Chagas' Disease), [32]–[35], intracellular amastigotes of L. infantum MHOM/MA(BE)/67 (leishmaniasis), [32]–[36], larval and/or adult worms of S. mansoni Puerto Rican strain (schistosomiasis), [31], [37], microfilariae of B. malayi (lymphatic filariasis), [30] and microfilariae of O. ochengi or O. lienalis (onchocerciasis), [30]. It should be noted that the human pathogen for onchocerciasis is Onchocerca volvulus, but due to lack of a suitable in vitro assay or animal models for this pathogen, O. ochengi and lienalis, which are both animal pathogens, are used in the primary and secondary assays, [30].

[2] = test system: Trypanosoma cruzi, Tulahuen CL2 strain; experiment: Antitrypanosomal activity assay, T. cruzi in MRC-5 cells; format: cell-based; details: T. cruzi Tulahuen CL2 in MRC-5 cells, 7 days
Procedure: as §1
171 of the 744 actives passed the initial criterion of IC50<1 µg/ml for T. cruzi Tulahuen CL2, beta galactosidase strain maintained on MRC-5SV2 cells in MEM medium (MRC-5 cell/parasite inoculum: 4.10^3 cells/well+4.10^4 parasites/well), supplemented with […] L-glutamine, 16.5 mM NaHCO3 and 5% heat inactivated fetal calf serum. […] Of these, 109 were eliminated [structures #1–6] for poor selectivity versus mammalian cells (SI<50) and an additional 11 due to undesirable chemical attributes. The remaining 51 compounds were sorted into 10 series (45 compounds) and 6 singletons [structures # 21, 22]. Two of these series with excellent potency against T. cruzi, limited activity against other protozoa and SI values >50 (not shown), have been transferred to DNDi for further evaluation.

[3] = test system: Trypanosoma brucei brucei Squib-427 strain; experiment: Antitrypanosomal activity assay, T. brucei (resazurin); format: cell-based; details: T. brucei Squib 427 bloodstream forms, 72 h
Procedure: as §1

[4] = test system: MRC-5 cell line (diploid human embryonic lung fibroblast); experiment: Cytotoxicity on MRC-5 cells; format: cell-based
Excerpt: [table] An important part of the screen is the evaluation of all compounds for cytotoxicity using the diploid human embryonic lung fibroblast MRC-5 cell line (Figure 2). Further evaluation of cytotoxicity also takes advantage of the assays for intracellular protozoan parasites, as in the case of L. infantum and T. cruzi, which include murine peritoneal macrophage host cells and MRC-5SV2 human lung fibroblast cells, respectively, in the culture system.

[5] = test system: Onchocerca (lienalis or ochengi) microfilariae; experiment: Anti-Onchocerca microfilariae motility assay; format: cell-based, Onchocerca lienalis or O. ochengi
Procedure: as §1
(§2) 4240 compound s were screened against O. ochengi at the University of Buea in Cameroon, while a subset of […] compounds was successfully screened in UK by the Northwick Park Institute for Medical Research against O. lienalis, at a uniform molarity. […] After removing molecules that were toxic to mammalian cells (IC50<5 µg/ml), 292 molecules remained for further evaluation. […] From the latter sub-set, […] distinct chemical series and one singleton [structure # 35] were active against both microfilaria and adults. One series [structures # 2, 3] was deemed not interesting due to lack of selectivity against mammalian cells. The remaining series is being transferred to ANDI for further progression as part of a new collaboration.

Onchocerca adult worms = format: cell-based
Excerpt: In some cases, particularly for the antifilarial screens, a second whole organism test with adult stage parasites is included prior to animal evaluation. The decision to utilize microfilariae for primary screening was based on throughput and biological considerations. It is difficult to acquire enough adult filariae to enable screening more than 1000 compounds per year, a rate far lower than needed for timely evaluation of the available compounds. In light of this situation, and considering that we are targeting molecules that are active on both stages, microfilariae screening was adopted as a suitable filter to identify compounds with potential macrofilaricidal activity.
as §2

[6] = test system: Schistosoma mansoni adult worms; experiment: Anti-Schistosoma activity assay (adult worm motility); format: cell-based; details: S. mansoni adult worms; 12.5 µM (method: 10 µg/ml or 12.5 µM)
Procedure: as §1
A subset of 9478 of the 10,000 compound collection was tested against the Puerto Rican strain of S. mansoni. 6144 of these were tested in a primary larval assay followed by the ex-vivo adult secondary screen. The remainder was screened only in the adult assay. […] The 65 compounds were sorted by chemical attractiveness, potency against adult schistosomes in culture, selectivity against other parasites, and toxicity to mammalian cells in culture. Based on this analysis, 5 series encompassing 13 compounds were chosen for advancement through the African Network for Drug and Diagnostic Innovation (ANDI) and other PDPs. Representative structures [structures # 13, 27, 28] are shown (Table S1). These compounds are unburdened by obvious toxic moieties, have acceptable compliance with the Lipinski rules, are selectively active against schistosomes and are not overtly toxic to mammalian cells. It has unfortunately not been possible to titrate all of these hits in culture; of about 50% for which such data are available, none has an IC50<2 µg/ml (which is the initial potency criteria).

| SMILES | MAL IC50 [1] [µg/mL] | CHA IC50 [2] [µg/mL] | HAT IC50 [3] [µg/mL] | CYT IC50 [4] [µg/mL] | ONC/MF % Motility Reduction at 12.5µM [5] [%] | ONC/AW % worm Mortality @ 12.5µM (Onchocerca adult worms) [%] | SCH % Motility Reduction at 12.5µM [6] [%] |
| --- | --- | --- | --- | --- | --- | --- | --- |
| CCCc1cc(=O)[nH]c(-n2nc(C)cc2NC(=O)C23CC4CC(CC(C4)C2)C3)n1 [TDR79936] | <0.12 | <0.12 | <0.12 | <0.12 | 100 | 75 | 100 |
| Cc1cc(NC(=O)CSc2ccc3nnc(-c4cccs4)n3n2)no1 [TDR78826] | 0.16 | 4.97 |  | >11.17 | 6.7 | 0 | 0 |
| CSCc1csc(NC(=O)Cc2ccc(Cl)cc2)n1 [TDR81206] | 5.98 | 2.47 | 3.0 | 3.7 | 100 | 75 | 0 |

— publication PMC3243694, “Integrated Dataset of Screening Hits against Multiple Neglected Disease Pathogens” (PLoS Neglected Tropical Diseases, 2011)
